Measurements published in publication PMC7887271, “Fast acting allosteric phosphofructokinase inhibitors block trypanosome glycolysis and cure acute African trypanosomiasis in mice” (Nature Communications, 2021).
Several values for one entry are separate records, joined by “and”; a condition that tells them apart may be missing. Equal entries are not always repeated.

Tests used:
T. b. gambiense = assay: EC50 against in vitro cultured T. b. gambiense (STMI); format: cell-based; settings: Trypanosoma brucei
[1] = Mouse hepatocytes intrinsic clearance; format: in vitro ADME
Description: (§1) Methods are described in Supplementary Methods 5 and 6. Enzyme assay results are means ± SD in multiple assays. ADME results are averages of n = 2 or 3 measurements in individual assays.

MDCK-MDR1 = settings: dog
[2] = Human hepatocytes intrinsic clearance; format: in vitro ADME
Description: as §1

T. b. brucei GVR35-luc = assay: Wash-out studies, GVR35; format: cell-based; settings: concentrations greater than 2 to 4 µM, exposure longer than 4-6 hours, 3 days in drug free medium
Description: In vitro ‘wash-out’ studies were performed to determine the reversibility of the action of the CTCB compounds on trypanosomes, after a certain exposure time, and thus to assess whether the compounds have a trypanocidal or trypanostatic effect. These experiments were carried out with both the T. b. brucei Lister 427 and T. b. brucei GVR35-luc strains. Trypanosomes at a density of 500,000 cells/ml in culture medium were incubated with CTCB compounds at varying concentrations in 12-well plates in volumes of 1 ml for different periods of time at 37°C. Subsequently, the cultures were centrifuged for 5 min at 2600 x g, the cells washed by re-suspending the pellets in 1 ml medium without inhibitors, centrifuged again and re-suspended in 1 ml fresh medium. The cell suspensions were then incubated under regular culture conditions for 3 days and parasite growth monitored daily by light microscopy.
The results for both strains are similar with no grow-back at concentrations of CTCB compounds greater than 2 to 4 µM with drug exposure longer than 4-6 hours.

T. b. brucei Lister 427 = assay: Wash-out studies, Lister 427; format: cell-based; settings: concentrations greater than 2 to 4 µM, exposure longer than 4-6 hours, 3 days in drug free medium
Description: In order to estimate a killing-dose for in vivo trials, a series of washout experiments were carried out: parasites were incubated with a given concentration of compound before washing out the drug and determining whether the parasites were still viable and able to proliferate. […] The existence of a small population of parasites more resistant to the effects of the CTCB compounds might be explained by subpopulations of parasites being present at different stages of the cell cycle. The parasite cultures used in the killing experiments are not synchronised, and it is likely that ATP requirement varies depending on cell cycle phase and a subpopulation with lower ATP requirement may be less susceptible to the CTCB compounds, however, this phenomenon needs further investigation.
In vitro ‘wash-out’ studies were performed to determine the reversibility of the action of the CTCB compounds on trypanosomes, after a certain exposure time, and thus to assess whether the compounds have a trypanocidal or trypanostatic effect. These experiments were carried out with both the T. b. brucei Lister 427 and T. b. brucei GVR35-luc strains. […] The cell suspensions were then incubated under regular culture conditions for 3 days and parasite growth monitored daily by light microscopy. […]

T. b. rhodesiense = assay: EC50 against in vitro cultured T. b. rhodesiense (STMI); format: cell-based; settings: Trypanosoma brucei
T. b. brucei GVR35-Luc2 = T. b. brucei GVR35-Luc2 time-to-kill assay (luciferin); format: cell-based; settings: for Luminescence (medium-subtracted), Average: average of replicates; for % Cell viability, individual replicates / % Inhibition, individual replicates / Luminescence (medium-subtracted), individual replicates: replicate wells; for Luminescence, Average / Luminescence, individual replicates: Time to kill assay for GVR35 cells
Description: Enzyme activity was measured using an aldolase/TIM linked assay at 25 °C. […] Experiments were carried out in duplicate. Data are presented as mean values ± standard deviation. […] Source data are provided as a Source Data File. b Kill time of CTCB-405 compared with existing HAT drugs in the clinic. […] Over 99% of trypanosomes were killed in under 30 min compared with much slower killing rates for the other drugs. The points on the graph for CTCB-405 were determined from two independent biological replicate experiments with each time point measured twice (using duplicate technical replicates). The ESD for each point on the graph is between 0.7 and 1.4%. For drugs in clinical use each point on the graph is the average of two technical replicates from one experiment (with a maximum difference of 7.8% for any of the points). Source data are provided as a Source Data File.
As predicted from the biology of the BSF that relies wholly on glycolysis for ATP production, inhibition of the pathway results in a very fast TTK. Two experimental methods were used to measure ATP levels as a real-time indicator of viability. For Tb427 parasites, a Cell Titre Glo kit was used and for the TbGVR35 bioluminescent strain, killing was assessed by adding luciferin which requires ATP to produce a luminescent signal (Supplementary Methods 4.3 and 4.4). […] The BSF of T. brucei cannot produce ATP by oxidative phosphorylation and is solely dependent on flux through the glycolytic pathway. The clear correlation between inhibitor dose and reduction in ATP production, as observed in the TTK assays strongly supports the proposed mode of action of the CTCB compounds is by blocking glycolysis. It is a long-established experimental observation that withdrawal of glucose nutrient leads to rapid loss of motility and cell death. It has recently been shown that the BSF of T. brucei can proliferate on high levels of glycerol; however, we have shown that addition of glycerol to the medium has little effect on parasite killing by the CTCB compounds (Supplementary Table 3).
The killing of T. b. brucei GVR35-Luc2 was assessed by adding D-luciferin to live cells resulting in the production of light in the presence of ATP and luciferase activity. Compounds of interest were serially diluted from 16 µM to 0.5 µM in Modified HMI-9 medium and added into sterile white, flat bottom 96-well plate (Greiner Inc.). 32,000 trypanosomes were added to each well. The plates were incubated at 37 °C and 5% CO2. At the end of each incubation, 200 µg/ml of D-luciferin was added to each well and incubated for 10 min. Luminescence was measured using a BMG plate reader and percentage cell viability versus incubation time was determined.

[3] = 0.5 h, mean, suramin, fexinidazole, SCYX-7158 11 µM, CTCB-405 4 µM
[4] = 1 h, mean, suramin, fexinidazole, SCYX-7158 11 µM, CTCB-405 4 µM
[5] = 2 h, mean, suramin, fexinidazole, SCYX-7158 11 µM, CTCB-405 4 µM
[6] = 4 h, mean, suramin, fexinidazole, SCYX-7158 11 µM, CTCB-405 4 µM
[7] = 6 h, mean, suramin, fexinidazole, SCYX-7158 11 µM, CTCB-405 4 µM
[8] = 8 h, mean, suramin, fexinidazole, SCYX-7158 11 µM, CTCB-405 4 µM
[9] = GVR35 TTK, 24 h incubation, average
[10] = GVR35 TTK, 24 h incubation, from average
[11] = GVR35 TTK, 24 h sheet, summary line marked "4"

## CN(C)CCn1ccc2c(ccn2Cc2ccc(Cl)c(Cl)c2)c1=O [CTCB-405, 1-[(3,4-Dichlorophenyl)methyl]-5-[2-(dimethylamino)ethyl] pyrrolo[3,2-c]pyridin-4-one]
T. b. gambiense
  EC50: 190 nM
[1]
  Mouse hepatocytes Clint: 3.7 µL min^−1 per 10^6 cells
MDCK-MDR1
  MDCK-MDR1 A-B: 17.6
  MDCK-MDR1 B-A: 17.2
[2]
  Human hepatocytes Clint: 2.3 µL min^−1 per 10^6 cells
T. b. brucei GVR35-luc
  wash-out: grow-back after removal of drug: no grow-back
T. b. brucei Lister 427
  wash-out: grow-back after removal of drug: no grow-back
T. b. rhodesiense
  EC50: 250 nM
T. b. brucei GVR35-Luc2; 4 µM, GVR35 bioluminescent strain
  trypanosomes killed in under 30 min: Over 99%
T. b. brucei GVR35-Luc2; 0.5 h
  % Cell viability, single replicates: 0.291% and 2.73%
  % Inhibition, single replicates: 100% and 97%
T. b. brucei GVR35-Luc2; 0.5 h, average
  % Cell viability: 1.49% and 1.51%
T. b. brucei GVR35-Luc2; [3]
  % Inhibition: 99%
T. b. brucei GVR35-Luc2; 1 h
  % Cell viability, single replicates: -0.108% and -1%
  % Inhibition, single replicates: 100% and 101%
T. b. brucei GVR35-Luc2; [4]
  % Inhibition: 101%
T. b. brucei GVR35-Luc2; 2 h
  % Cell viability, single replicates: -0.773% and 0.055%
  % Inhibition, single replicates: 101% and 100%
T. b. brucei GVR35-Luc2; 2 h, average
  % Cell viability: -0.345% and -0.359%
T. b. brucei GVR35-Luc2; [5]
  % Inhibition: 100%
T. b. brucei GVR35-Luc2; 4 h
  % Cell viability, single replicates: -0.741% and -0.843%
  % Inhibition, single replicates: 101%
T. b. brucei GVR35-Luc2; 4 h, average
  % Cell viability: -0.791% and 0% and -0.792%
T. b. brucei GVR35-Luc2; [6]
  % Inhibition: 101%
T. b. brucei GVR35-Luc2; 6 h
  % Cell viability, single replicates: -0.633% and -0.494%
  % Inhibition, single replicates: 101% and 100%
T. b. brucei GVR35-Luc2; 6 h, average
  % Cell viability: -0.563% and -0.564%
T. b. brucei GVR35-Luc2; [7]
  % Inhibition: 101%
T. b. brucei GVR35-Luc2; 8 h
  % Cell viability, single replicates: -0.333% and -0.376%
  % Inhibition, single replicates: 100%
T. b. brucei GVR35-Luc2; 8 h, average
  % Cell viability: -0.354%
T. b. brucei GVR35-Luc2; [8]
  % Inhibition: 100%
T. b. brucei GVR35-Luc2; [9]
  % Cell viability, Average: -0.0941%
T. b. brucei GVR35-Luc2; GVR35 TTK, 24 h incubation
  Luminescence (medium-subtracted), Average: -1
  % Cell viability, individual replicates: -0.0906% and -0.0976%
  % Inhibition, individual replicates: 100%
  Luminescence (medium-subtracted), individual replicates: -8.5 and 6.5
T. b. brucei GVR35-Luc2; [10]
  % Inhibition: 100%
T. b. brucei GVR35-Luc2; [11]
  % Cell viability: -0.0937%
T. b. brucei GVR35-Luc2; 0.5 hour incubation
  Luminescence, Average: 184
  Luminescence, individual replicates: 76 and 293
T. b. brucei GVR35-Luc2; 1hour incubation
  Luminescence, Average: 41
  Luminescence, individual replicates: 96 and -14
T. b. brucei GVR35-Luc2; 2hour incubation
  Luminescence, Average: 40
  Luminescence, individual replicates: -17 and 96
T. b. brucei GVR35-Luc2; 4hour incubation
  Luminescence, Average: -33
  Luminescence, individual replicates: -26 and -40
T. b. brucei GVR35-Luc2; 6hour incubation
  Luminescence, Average: -24
  Luminescence, individual replicates: -47 and -1
T. b. brucei GVR35-Luc2; 8hour incubation
  Luminescence, Average: 13
  Luminescence, individual replicates: 20 and 6
T. b. brucei GVR35-Luc2; 24hour incubation
  Luminescence, Average: -1
  Luminescence, individual replicates: -8.5 and 6.5

## CNCCn1ccc2c(ccn2Cc2ccc(Cl)c(Cl)c2)c1=O [CTCB-435]
T. b. brucei GVR35-Luc2; 0.5 h
  % Cell viability, single replicates: 0.549% and -0.0671%
  % Inhibition, single replicates: 99% and 100%
T. b. brucei GVR35-Luc2; 0.5 h, average
  % Cell viability: 0.247% and 0.241%
T. b. brucei GVR35-Luc2; [3]
  % Inhibition: 100%
T. b. brucei GVR35-Luc2; 1 h
  % Cell viability, single replicates: -0.883% and -0.918%
  % Inhibition, single replicates: 101%
T. b. brucei GVR35-Luc2; [4]
  % Inhibition: 101%
T. b. brucei GVR35-Luc2; 2 h
  % Cell viability, single replicates: -0.287% and -0.261%
  % Inhibition, single replicates: 100%
T. b. brucei GVR35-Luc2; 2 h, average
  % Cell viability: -0.274%
T. b. brucei GVR35-Luc2; [5]
  % Inhibition: 100%
T. b. brucei GVR35-Luc2; 4 h
  % Cell viability, single replicates: -0.785% and -0.904%
  % Inhibition, single replicates: 101%
T. b. brucei GVR35-Luc2; 4 h, average
  % Cell viability: -0.843% and 0% and -0.844%
T. b. brucei GVR35-Luc2; [6]
  % Inhibition: 101%
T. b. brucei GVR35-Luc2; 6 h
  % Cell viability, single replicates: -0.726% and -0.643%
  % Inhibition, single replicates: 101%
T. b. brucei GVR35-Luc2; 6 h, average
  % Cell viability: -0.684%
T. b. brucei GVR35-Luc2; [7]
  % Inhibition: 101%
T. b. brucei GVR35-Luc2; 8 h
  % Cell viability, single replicates: -0.436% and -0.367%
  % Inhibition, single replicates: 100%
T. b. brucei GVR35-Luc2; 8 h, average
  % Cell viability: -0.401%
T. b. brucei GVR35-Luc2; [8]
  % Inhibition: 100%
T. b. brucei GVR35-Luc2; [9]
  % Cell viability, Average: -0.136%
T. b. brucei GVR35-Luc2; GVR35 TTK, 24 h incubation
  Luminescence (medium-subtracted), Average: -47.5
  % Cell viability, individual replicates: -0.139% and -0.134%
  % Inhibition, individual replicates: 100%
  Luminescence (medium-subtracted), individual replicates: -66.5 and -28.5
T. b. brucei GVR35-Luc2; [10]
  % Inhibition: 100%
T. b. brucei GVR35-Luc2; [11]
  % Cell viability: -0.137%
T. b. brucei GVR35-Luc2; 0.5 hour incubation
  Luminescence, Average: 71
  Luminescence, individual replicates: 100 and 43
T. b. brucei GVR35-Luc2; 1hour incubation
  Luminescence, Average: 2
  Luminescence, individual replicates: 3 and 1
T. b. brucei GVR35-Luc2; 2hour incubation
  Luminescence, Average: 50
  Luminescence, individual replicates: 49 and 50
T. b. brucei GVR35-Luc2; 4hour incubation
  Luminescence, Average: -42
  Luminescence, individual replicates: -34 and -51
T. b. brucei GVR35-Luc2; 6hour incubation
  Luminescence, Average: -65
  Luminescence, individual replicates: -78 and -51
T. b. brucei GVR35-Luc2; 8hour incubation
  Luminescence, Average: -1.5
  Luminescence, individual replicates: -12 and 9
T. b. brucei GVR35-Luc2; 24hour incubation
  Luminescence, Average: -48
  Luminescence, individual replicates: -67 and -29

## CN(C)CCn1ccc2c(ccn2Cc2ccc(Cl)c(Br)c2)c1=O [CTCB-470, 1-[(3-Bromo-4-chlorophenyl)methyl]-5-[2-(dimethylamino)ethyl] pyrrolo[3,2-c]pyridin-4-one]
T. b. gambiense
  EC50: 140 nM
[1]
  Mouse hepatocytes Clint: 3.6 µL min^−1 per 10^6 cells
MDCK-MDR1
  MDCK-MDR1 A-B: 34.9
  MDCK-MDR1 B-A: 28.3
T. b. brucei GVR35-luc
  wash-out: grow-back after removal of drug: no grow-back
T. b. brucei Lister 427
  wash-out: grow-back after removal of drug: no grow-back
T. b. rhodesiense
  EC50: 280 nM
